The target of assay [1] is T1, Type-1 angiotensin II receptor (Homo sapiens) (UniProt P30556).
T1 sequence (whole entry): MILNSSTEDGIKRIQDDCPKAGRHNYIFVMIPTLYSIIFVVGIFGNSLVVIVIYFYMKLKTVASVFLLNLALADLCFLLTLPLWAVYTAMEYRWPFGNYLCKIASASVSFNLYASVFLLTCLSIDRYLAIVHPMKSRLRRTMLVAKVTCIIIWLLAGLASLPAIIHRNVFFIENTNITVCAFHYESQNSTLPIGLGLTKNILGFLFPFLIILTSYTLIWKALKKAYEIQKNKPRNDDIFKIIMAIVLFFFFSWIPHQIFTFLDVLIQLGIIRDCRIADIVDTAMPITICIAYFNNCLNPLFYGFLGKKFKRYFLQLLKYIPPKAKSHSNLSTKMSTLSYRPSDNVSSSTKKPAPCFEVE
The assay can be described thus: Antagonist activity at human AT1 receptor expressed in CHO cells assessed as reduction in angiotensin 2-induced inositol phosphate accumulation by measuring dissociation rate constant preincubated with cells followed by compound washout in presence of losartan and subsequent addition of angiotensin 2 for 5 mins. It is filed as functional, cell-based.

Assay [2] addresses T1, Type-1 angiotensin II receptor (Homo sapiens). The assay can be described thus: Antagonist activity at human AT1 receptor expressed in CHO cells assessed as reduction in angiotensin 2-induced inositol phosphate accumulation by measuring dissociation rate constant preincubated with cells followed by compound washout and subsequent addition of angiotensin 2 for 5 mins. It counts as functional, cell-based.

Assay [3] has the same target. The assay can be described thus: Displacement of [3H]-candesartan from human AT1 receptor expressed in CHO cells assessed as dissociation rate constant at 100 nM pre-incubated with cells followed by compound washout and subsequent addition of [3H]-candesartan up to 60 mins. It counts as cell-based.
Assay [4] has the same target. As to the kind of experiment: Binding affinity to human AT1 receptor expressed in CHO cells assessed as dissociation rate constant at 3 nM incubated for 60 mins followed by compound washout. It is filed as cell-based.
The target is the same in assay [5]. The assay can be described thus: Binding affinity to human AT1 receptor expressed in CHO cells assessed as dissociation rate constant at 3 nM incubated for 60 mins followed by compound washout in presence of losartan. It is filed as cell-based.
Assay [6] has the same target. As to the kind of experiment: Binding affinity to human AT1 receptor expressed in CHO cells assessed as dissociation rate constant at 3 nM incubated for 60 mins measured after isotopic dilution. It counts as cell-based.
For assay [7] the target is unchanged. As to the kind of experiment: Antagonist activity at human AT1 receptor expressed in CHO cells assessed as reduction in angiotensin 2-induced inositol phosphate accumulation by measuring residence time constant preincubated with cells followed by compound washout and subsequent addition of angiotensin 2 for 5 mins. It is filed as functional, cell-based.
Assay [8] shares this target. As to the kind of experiment: Antagonist activity at human AT1 receptor expressed in CHO cells assessed as reduction in angiotensin 2-induced inositol phosphate accumulation by measuring residence time constant preincubated with cells followed by compound washout in presence of losartan and subsequent addition of angiotensin 2 for 5 mins. It counts as functional, cell-based.

Assay [9] has the same target. As to the kind of experiment: Displacement of [3H]-candesartan from human AT1 receptor expressed in CHO cells assessed as residence time at 100 nM pre-incubated with cells followed by compound washout and subsequent addition of [3H]-candesartan up to 60 mins. It counts as cell-based.
Assay [10] has the same target. As to the kind of experiment: Binding affinity to human AT1 receptor expressed in CHO cells assessed as residence time at 3 nM incubated for 60 mins followed by compound washout. It counts as cell-based.
Assay [11] has the same target. The assay can be described thus: Binding affinity to human AT1 receptor expressed in CHO cells assessed as residence time at 3 nM incubated for 60 mins followed by compound washout in presence of losartan. It counts as cell-based.
Assay [12] shares this target. As to the kind of experiment: Binding affinity to human AT1 receptor expressed in CHO cells assessed as residence time at 3 nM incubated for 60 mins measured after isotopic dilution. It counts as cell-based.
For assay [13] the target is unchanged. The assay can be described thus: Binding affinity to human AT1 receptor expressed in CHO cells assessed as dissociation rate constant at 1.5 nM incubated for 60 mins followed by compound washout. It counts as cell-based.
Assay [14] shares this target. The assay can be described thus: Binding affinity to human AT1 receptor expressed in CHO cells assessed as dissociation rate constant at 1.5 nM incubated for 60 mins followed by compound washout in presence of losartan. It is filed as cell-based.
Assay [15] shares this target. The assay can be described thus: Binding affinity to human AT1 receptor expressed in CHO cells assessed as dissociation rate constant at 1.5 nM incubated for 60 mins measured after isotopic dilution. It counts as cell-based.
The target is the same in assay [16]. The assay can be described thus: Binding affinity to human AT1 receptor expressed in CHO cells assessed as residence time at 1.5 nM incubated for 60 mins followed by compound washout. It is filed as cell-based.
Assay [17] shares this target. As to the kind of experiment: Binding affinity to human AT1 receptor expressed in CHO cells assessed as residence time at 1.5 nM incubated for 60 mins followed by compound washout in presence of losartan. It counts as cell-based.
For assay [18] the target is unchanged. The assay can be described thus: Binding affinity to human AT1 receptor expressed in CHO cells assessed as residence time at 1.5 nM incubated for 60 mins measured after isotopic dilution. It is filed as cell-based.
The target is the same in assay [19]. The assay can be described thus: Displacement of [3H]-candesartan from human AT1 receptor expressed in CHO cells assessed as dissociation rate constant at 1.5 nM pre-incubated with cells followed by compound washout and subsequent addition of [3H]-candesartan up to 60 mins. It counts as cell-based.
The target is the same in assay [20]. The assay can be described thus: Displacement of [3H]-candesartan from human AT1 receptor expressed in CHO cells assessed as residence time at 1.5 nM pre-incubated with cells followed by compound washout and subsequent addition of [3H]-candesartan up to 60 mins. It counts as cell-based. On the technique in general: In a radioligand displacement assay an active substance lowers the binding of a labelled ligand.

On to `CCCCC1=NC2(CCCC2)C(=O)N1Cc1ccc(-c2ccccc2-c2nnn[nH]2)cc1`, for which the K is 0.058 min⁻¹ in [1]; 0.039 min⁻¹ in assay [2]; 0.04 min⁻¹ in [3]; 0.128 min⁻¹ in assay [4]; 0.101 min⁻¹ in assay [5]; 0.104 min⁻¹ in [6]. Further, the TIME amounted to 0.433 h in assay [7]; 0.283 h in [8]; 0.417 h in assay [9]; 0.15 h in assay [10]; 0.15 h in assay [11]; 0.167 h in [12].

For `CCCCC(=O)N(Cc1ccc(-c2ccccc2-c2nn[nH]n2)cc1)[C@@H](C(=O)O)C(C)C`, the K in [13] was 0.028 min⁻¹; in [14] it was 0.049 min⁻¹; in [15], 0.041 min⁻¹. Further, the TIME in assay [16] is 0.6 h; in [17] it was 0.333 h; in [18], 0.417 h.

As to `CCCCc1nc(Cl)c(C(=O)O)n1Cc1ccc(-c2ccccc2-c2nn[nH]n2)cc1`, the K turned out to be 0.021 min⁻¹ in assay [1] and 0.016 min⁻¹ in assay [2]. Further, the results for the TIME in assay [7] and in [8] were 1.05 h and 0.8 h, respectively.

Consider `CCOc1nc2cccc(C(=O)O)c2n1Cc1ccc(-c2ccccc2-c2nnn[nH]2)cc1`, for which the K stood at 0.003 min⁻¹ in [1]; 0.002 min⁻¹ in assay [2]; 0.004 min⁻¹ in [19]; 0.001 min⁻¹ in assay [13]; 0.005 min⁻¹ in [14]; 0.006 min⁻¹ in assay [15]. The TIME in assay [7] stood at 7.57 h; in [8], 4.45 h; in assay [20] it was 3.65 h; in [16] it was 16.6 h; in [17] it was 3.62 h; in [18], 2.7 h.

Source of the values: ChEMBL document CHEMBL4052724, “Influence of the cellular environment on ligand binding kinetics at membrane-bound targets” (Bioorg Med Chem Lett, 2017).
